Assay results reported in the NIST ThermoML archive (doi:10.1007/s10765-011-0996-9).
Numbers after ± are expanded uncertainties.

Assay: cn = amount concentration of the nth substance listed, in mol/dm3
Conditions: 101 kPa, Liquid, Capillary tube (Ostwald / Ubbelohde) method, c1 = 2

## [Cl-].[K+] [potassium chloride] + O
298.15 K
  viscosity: 0.9063 ± 0.0073 mPa·s
303.15 K
  viscosity: 0.8279 ± 0.0067 mPa·s
308.15 K
  viscosity: 0.7573 ± 0.0062 mPa·s
313.15 K
  viscosity: 0.6954 ± 0.0058 mPa·s
318.15 K
  viscosity: 0.64 ± 0.0054 mPa·s
323.15 K
  viscosity: 0.5914 ± 0.0051 mPa·s

## O=[N+]([O-])[O-].[K+] [potassium nitrate] + O
298.15 K
  viscosity: 0.8985 ± 0.0072 mPa·s
303.15 K
  viscosity: 0.8134 ± 0.0066 mPa·s
308.15 K
  viscosity: 0.7473 ± 0.0061 mPa·s
313.15 K
  viscosity: 0.6857 ± 0.0057 mPa·s
318.15 K
  viscosity: 0.6322 ± 0.0054 mPa·s
323.15 K
  viscosity: 0.5838 ± 0.005 mPa·s
